Experimental data taken from PubChem BioAssay (NCI).
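At the GI50, growth is halved. TGI is the concentration that stops growth completely.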

Key:
Test in all cases: NCI tumour cell line growth inhibition, 384-well format
[1] = tested on: 786-0 renal
[2] = tested on: A498 renal
[3] = tested on: A549 NSCLC
[4] = tested on: ACHN renal
[5] = tested on: BT-549 breast
[6] = tested on: CAKI-1 renal
[7] = tested on: CCRF-CEM leukemia
[8] = tested on: COLO 205 colon
[9] = tested on: DU-145 prostate
[10] = tested on: EKVX NSCLC
[11] = tested on: HCC-2998 colon
[12] = tested on: HCT-116 colon
[13] = tested on: HCT-15 colon
[14] = tested on: HL-60(TB) leukemia
[15] = tested on: HOP-62 NSCLC
[16] = tested on: HOP-92 NSCLC
[17] = tested on: HS 578T breast
[18] = tested on: HT29 colon
[19] = tested on: IGROV1 ovarian
[20] = tested on: K-562 leukemia
[21] = tested on: KM12 colon
[22] = tested on: LOX IMVI melanoma
[23] = tested on: M14 melanoma
[24] = tested on: MALME-3M melanoma
[25] = tested on: MCF7 breast
[26] = tested on: MDA-MB-435 melanoma
[27] = tested on: MDA-MB-468 breast
[28] = tested on: MOLT-4 leukemia
[29] = tested on: NCI-H226 lung
[30] = tested on: NCI-H23 lung
[31] = tested on: NCI-H322M lung
[32] = tested on: NCI-H460 NSCLC
[33] = tested on: NCI-H522 lung
[34] = tested on: NCI/ADR-RES ovarian
[35] = tested on: OVCAR-3 ovarian
[36] = tested on: OVCAR-4 ovarian
[37] = tested on: OVCAR-8 ovarian
[38] = tested on: PC-3 prostate
[39] = tested on: RPMI-8226 leukemia
[40] = tested on: RXF 393 renal
[41] = tested on: SF-268 CNS
[42] = tested on: SF-295 CNS
[43] = tested on: SF-539 CNS
[44] = tested on: SK-MEL-2 melanoma
[45] = tested on: SK-MEL-28 melanoma
[46] = tested on: SK-MEL-5 melanoma
[47] = tested on: SK-OV-3 ovarian
[48] = tested on: SN12C renal
[49] = tested on: SNB-19 CNS
[50] = tested on: SNB-75 CNS
[51] = tested on: SW-620 colon
[52] = tested on: TK-10 renal
[53] = tested on: U251 glioblastoma
[54] = tested on: UACC-257 melanoma
[55] = tested on: UACC-62 melanoma
[56] = tested on: OVCAR-5 ovarian
[57] = tested on: T-47D breast
[58] = tested on: UO-31 renal

## COc1cc(OC)c(C(=O)C(CN(C)C)CN(C)C)cc1OC
[1]
  GI50: 2.27 µM
  TGI: 4.92 µM
[2]
  GI50: 12.5 µM
  TGI: 25.1 µM
[3]
  GI50: 14.1 µM
  TGI: 27.6 µM
[4]
  GI50: 1.41 µM
  TGI: 2.74 µM
[5]
  GI50: 3.06 µM
  TGI: 8.06 µM
[6]
  GI50: 1.02 µM
  TGI: 2.22 µM
[7]
  GI50: 0.369 µM
  TGI: 1.38 µM
[8]
  GI50: 0.696 µM
  TGI: 1.96 µM
[9]
  GI50: 4.56 µM
  TGI: 15 µM
[10]
  GI50: 10.4 µM
  TGI: 22.3 µM
[11]
  GI50: 4.8 µM
  TGI: 18.6 µM
[12]
  GI50: 1.41 µM
  TGI: 2.82 µM
[13]
  GI50: 1.49 µM
  TGI: 2.88 µM
[14]
  GI50: 0.146 µM
  TGI: 0.279 µM
[15]
  GI50: 22 µM
  TGI: 36.6 µM
[16]
  GI50: 2.12 µM
  TGI: 3.66 µM
[17]
  GI50: 7.53 µM
  TGI: 19.8 µM
[18]
  GI50: 3.42 µM
  TGI: 12.9 µM
[19]
  GI50: 2.06 µM
  TGI: 4.43 µM
[20]
  GI50: 6 µM
  TGI: 18.1 µM
[21]
  GI50: 3.64 µM
  TGI: 9.17 µM
[22]
  GI50: 6.55 µM
  TGI: 19.9 µM
[23]
  GI50: 2.16 µM
  TGI: 4.3 µM
[24]
  GI50: 0.999 µM
  TGI: 2.17 µM
[25]
  GI50: 1.83 µM
  TGI: 3.77 µM
[26]
  GI50: 3.27 µM
  TGI: 8.94 µM
[27]
  GI50: 0.317 µM
  TGI: 0.697 µM
[28]
  GI50: 0.225 µM
  TGI: 0.591 µM
[29]
  GI50: 1.91 µM
  TGI: 4.42 µM
[30]
  GI50: 2.17 µM
  TGI: 4.18 µM
[31]
  GI50: 18.4 µM
  TGI: 32.5 µM
[32]
  GI50: 2.75 µM
  TGI: 6.41 µM
[33]
  GI50: 0.382 µM
  TGI: 1.57 µM
[34]
  GI50: 2.12 µM
  TGI: 4.11 µM
[35]
  GI50: 1.71 µM
  TGI: 3.37 µM
[36]
  GI50: 1.81 µM
  TGI: 3.21 µM
[37]
  GI50: 1.44 µM
  TGI: 2.84 µM
[38]
  GI50: 3 µM
  TGI: 7.62 µM
[39]
  GI50: 0.419 µM
  TGI: 1.14 µM
[40]
  GI50: 1.92 µM
  TGI: 3.44 µM
[41]
  GI50: 17.2 µM
  TGI: 31.1 µM
[42]
  GI50: 19.2 µM
  TGI: 39.3 µM
[43]
  GI50: 1.6 µM
  TGI: 3.06 µM
[44]
  GI50: 1.7 µM
  TGI: 3.67 µM
[45]
  GI50: 3.32 µM
  TGI: 7.76 µM
[46]
  GI50: 5.64 µM
  TGI: 18.4 µM
[47]
  GI50: 16.9 µM
  TGI: 30.7 µM
[48]
  GI50: 1.81 µM
  TGI: 3.58 µM
[49]
  GI50: 14.4 µM
  TGI: 27.7 µM
[50]
  GI50: 19.8 µM
  TGI: 34.1 µM
[51]
  GI50: 1.14 µM
  TGI: 2.44 µM
[52]
  GI50: 1.54 µM
  TGI: 3.04 µM
[53]
  GI50: 7.75 µM
  TGI: 20 µM
[54]
  GI50: 1.41 µM
  TGI: 2.81 µM
[55]
  GI50: 2.06 µM
  TGI: 4.4 µM

## S=P(N1CC1)(N1CC1)N1CC1
[1]
  GI50: 32.7 µM
[2]
  GI50: 39.4 µM
[3]
  GI50: 38.4 µM
[4]
  GI50: 19.9 µM
  TGI: 63.4 µM
[5]
  GI50: 29 µM
[6]
  GI50: 17.8 µM
[7]
  GI50: 4.2 µM
  TGI: 11 µM
[9]
  GI50: 7.82 µM
  TGI: 98.9 µM
[12]
  GI50: 34.1 µM
[13]
  GI50: 33.7 µM
[14]
  GI50: 1.27 µM
  TGI: 2.85 µM
[15]
  GI50: 8.65 µM
  TGI: 31.8 µM
[18]
  GI50: 59.4 µM
[20]
  GI50: 74 µM
[21]
  GI50: 93.6 µM
[22]
  GI50: 24.9 µM
[23]
  GI50: 24.8 µM
[25]
  GI50: 21.2 µM
[27]
  GI50: 3.58 µM
  TGI: 18.7 µM
[28]
  GI50: 0.4 µM
  TGI: 1.49 µM
[29]
  GI50: 61.3 µM
[30]
  GI50: 17.3 µM
  TGI: 99.5 µM
[33]
  GI50: 45.9 µM
[34]
  GI50: 30.1 µM
[35]
  GI50: 43.3 µM
[56]
  GI50: 70.4 µM
[37]
  GI50: 28 µM
[39]
  GI50: 12 µM
  TGI: 36.4 µM
[40]
  GI50: 53.9 µM
[41]
  GI50: 9.43 µM
[42]
  GI50: 11.3 µM
  TGI: 31.3 µM
[43]
  GI50: 20.2 µM
  TGI: 92.8 µM
[47]
  GI50: 29.8 µM
[48]
  GI50: 9.52 µM
[49]
  GI50: 41.6 µM
[50]
  GI50: 22 µM
[51]
  GI50: 61.6 µM
[57]
  GI50: 93.6 µM
[53]
  GI50: 20.7 µM
[55]
  GI50: 11 µM
[58]
  GI50: 74.4 µM
